In brackets after ≈: the same amount, converted by molar mass.
What was measured:
Klebsiella pneumoniae [1] = assay: Compound was evaluated for inhibitory activity against X26 Klebsiella pneumoniae; format: functional
Haemophilus influenzae [2] = assay: Compound was evaluated for inhibitory activity against C.L Haemophilus influenzae ampicillin sensitive; format: functional
Serratia [3] = assay: Compound was evaluated for inhibitory activity against X99 Serratia; format: functional
Streptococcus pyogenes [4] = assay: Compound was evaluated for inhibitory activity against C203 Streptococcus pyogenes Gp.A; No growth; format: functional, organism-based
Klebsiella aerogenes [5] = assay: Compound was evaluated for inhibitory activity against EB17 Enterobacter aerogenes; format: functional
Streptococcus pneumoniae [6] = assay: Compound was evaluated for inhibitory activity against Park S Streptococcus pneumoniae; No growth; format: functional, organism-based
Klebsiella aerogenes [7] = assay: Compound was evaluated for inhibitory activity against C32 Enterobacter aerogenes; format: functional
Staphylococcus aureus [8] = assay: Compound was evaluated for inhibitory activity against X400S Staphylococcus aureus methicillin resistant and macrolide resistant; format: functional
Staphylococcus aureus [9] = assay: Compound was evaluated for inhibitory activity against X1.1 Staphylococcus aureus penicillin sensitive; format: functional
Serratia [10] = assay: Compound was evaluated for inhibitory activity against SE3 Serratia; format: functional
Enterococcus faecalis [11] = assay: Compound was evaluated for inhibitory activity against 2041 Enterococcus faecalis Gp.D streptococcus penicillin susceptible; format: functional
Acinetobacter = assay: Compound was evaluated for inhibitory activity against AC12 Acinetobacter; format: functional
Enterobacter cloacae [12] = assay: Compound was evaluated for inhibitory activity against EB5 Enterobacter cloacae; format: functional
Escherichia coli [13] = assay: Compound was evaluated for inhibitory activity against TEM Escherichia coli beta-lactamase; format: functional
Providencia rettgeri = assay: Compound was evaluated for inhibitory activity against C24 Providencia rettgeri; format: functional
Providencia stuartii = assay: Compound was evaluated for inhibitory activity against PR33 Providencia stuartii; format: functional
Staphylococcus aureus [14] = assay: Compound was evaluated for inhibitory activity against S13E Staphylococcus aureus methicillin resistant penicillin resistant macrolide sensitive (PBP2a producer); format: functional
Klebsiella pneumoniae [15] = assay: Compound was evaluated for inhibitory activity against KAE Klebsiella pneumoniae; format: functional
Salmonella [16] = assay: Compound was evaluated for inhibitory activity against X514 Salmonella; format: functional
Enterobacter cloacae [17] = assay: Compound was evaluated for inhibitory activity against 265a Enterobacter cloacae beta-lactamase; format: functional
Haemophilus influenzae [18] = assay: Compound was evaluated for inhibitory activity against 76 Haemophilus influenzae beta-lactamase; format: functional
Morganella morganii = assay: Compound was evaluated for inhibitory activity against PR15 Morganella morganii; format: functional
Escherichia coli [19] = assay: Compound was evaluated for inhibitory activity against EC14 Escherichia coli sensitive; format: functional
Citrobacter = assay: Compound was evaluated for inhibitory activity against CF17 Citrobacter; format: functional
Streptococcus pneumoniae [20] = assay: Compound was evaluated for inhibitory activity against Park S Streptococcus pneumoniae; format: functional
Streptococcus pyogenes [21] = assay: Compound was evaluated for inhibitory activity against C203 Streptococcus pyogenes Gp.A; format: functional
Enterococcus faecalis [22] = assay: Compound was evaluated penicillin susceptible; format: functional
Salmonella [23] = assay: Compound was evaluated for minimum inhibitory concentration against X514 Salmonella; format: functional

SMILES	MIC (Klebsiella pneumoniae [1])	MIC (Haemophilus influenzae [2])	MIC (Serratia [3])	MIC (Klebsiella aerogenes [5])	MIC (Klebsiella aerogenes [7])	MIC (Staphylococcus aureus [8])	MIC (Staphylococcus aureus [9])	MIC (Serratia [10])	MIC (Acinetobacter)	MIC (Enterobacter cloacae [12])	MIC (Escherichia coli [13])	MIC (Providencia rettgeri)	MIC (Providencia stuartii)	MIC (Staphylococcus aureus [14])	MIC (Klebsiella pneumoniae [15])	MIC (Enterobacter cloacae [17])	MIC (Haemophilus influenzae [18])	MIC (Morganella morganii)	MIC (Escherichia coli [19])	MIC (Citrobacter)	also measured
Nc1ccc([C@@H](N)C(=O)N[C@@H]2C(=O)N3C(C(=O)O)=C(C(F)(F)F)CC[C@H]23)cc1	0.5 µM (≈ 0.199 µg/mL)	1 µM (≈ 0.398 µg/mL)	16 µM (≈ 6.37 µg/mL)	4 µM (≈ 1.59 µg/mL)	8 µM (≈ 3.19 µg/mL)	64 µM (≈ 25.5 µg/mL)	2 µM (≈ 0.797 µg/mL)	32 µM (≈ 12.7 µg/mL)	64 µM (≈ 25.5 µg/mL)	16 µM (≈ 6.37 µg/mL)	1 µM (≈ 0.398 µg/mL)	16 µM (≈ 6.37 µg/mL)	32 µM (≈ 12.7 µg/mL)	64 µM (≈ 25.5 µg/mL)	16 µM (≈ 6.37 µg/mL)	32 µM (≈ 12.7 µg/mL)	1 µM (≈ 0.398 µg/mL)	8 µM (≈ 3.19 µg/mL)	0.5 µM (≈ 0.199 µg/mL)	16 µM (≈ 6.37 µg/mL)	MIC (Streptococcus pyogenes [4]): No growth; MIC (Streptococcus pneumoniae [6]): No growth; MIC (Enterococcus faecalis [11]): 16 µM (≈ 6.37 µg/mL); MIC (Salmonella [16]): 0.25 µM (≈ 0.0996 µg/mL)
N[C@@H](C(=O)N[C@@H]1C(=O)N2C(C(=O)O)=C(C(F)(F)F)CC[C@H]12)c1cccc(C(F)(F)F)c1	1 µM (≈ 0.451 µg/mL)	1 µM (≈ 0.451 µg/mL)	128 µM (≈ 57.8 µg/mL)	128 µM (≈ 57.8 µg/mL)	128 µM (≈ 57.8 µg/mL)	16 µM (≈ 7.22 µg/mL)	2 µM (≈ 0.903 µg/mL)	128 µM (≈ 57.8 µg/mL)	32 µM (≈ 14.4 µg/mL)	4 µM (≈ 1.81 µg/mL)	16 µM (≈ 7.22 µg/mL)	64 µM (≈ 28.9 µg/mL)	32 µM (≈ 14.4 µg/mL)	16 µM (≈ 7.22 µg/mL)	64 µM (≈ 28.9 µg/mL)	128 µM (≈ 57.8 µg/mL)	1 µM (≈ 0.451 µg/mL)	32 µM (≈ 14.4 µg/mL)	8 µM (≈ 3.61 µg/mL)	128 µM (≈ 57.8 µg/mL)	MIC (Streptococcus pyogenes [4]): No growth; MIC (Streptococcus pneumoniae [20]): 0.13 µM (≈ 0.0587 µg/mL); MIC (Enterococcus faecalis [11]): 16 µM (≈ 7.22 µg/mL); MIC (Salmonella [16]): 32 µM (≈ 14.4 µg/mL)
Cc1cccc([C@@H](N)C(=O)N[C@@H]2C(=O)N3C(C(=O)O)=C(C(F)(F)F)CC[C@H]23)c1	1 µM (≈ 0.397 µg/mL)	1 µM (≈ 0.397 µg/mL)	16 µM (≈ 6.36 µg/mL)	4 µM (≈ 1.59 µg/mL)	32 µM (≈ 12.7 µg/mL)	4 µM (≈ 1.59 µg/mL)	1 µM (≈ 0.397 µg/mL)	32 µM (≈ 12.7 µg/mL)	32 µM (≈ 12.7 µg/mL)	16 µM (≈ 6.36 µg/mL)	4 µM (≈ 1.59 µg/mL)	16 µM (≈ 6.36 µg/mL)	8 µM (≈ 3.18 µg/mL)	4 µM (≈ 1.59 µg/mL)	16 µM (≈ 6.36 µg/mL)	32 µM (≈ 12.7 µg/mL)	2 µM (≈ 0.795 µg/mL)	8 µM (≈ 3.18 µg/mL)	2 µM (≈ 0.795 µg/mL)	16 µM (≈ 6.36 µg/mL)	MIC (Streptococcus pneumoniae [20]): 0.25 µM (≈ 0.0993 µg/mL); MIC (Enterococcus faecalis [11]): 8 µM (≈ 3.18 µg/mL); MIC (Streptococcus pyogenes [21]): 0.03 µM (≈ 0.0119 µg/mL); MIC (Salmonella [16]): 8 µM (≈ 3.18 µg/mL)
CCS(=O)(=O)Nc1cccc([C@@H](N)C(=O)N[C@@H]2C(=O)N3C(C(=O)O)=C(C(F)(F)F)CC[C@H]23)c1	0.25 µM (≈ 0.123 µg/mL)	1 µM (≈ 0.49 µg/mL)	64 µM (≈ 31.4 µg/mL)	16 µM (≈ 7.85 µg/mL)	16 µM (≈ 7.85 µg/mL)	32 µM (≈ 15.7 µg/mL)	4 µM (≈ 1.96 µg/mL)	128 µM (≈ 62.8 µg/mL)	64 µM (≈ 31.4 µg/mL)	32 µM (≈ 15.7 µg/mL)	1 µM (≈ 0.49 µg/mL)	32 µM (≈ 15.7 µg/mL)	16 µM (≈ 7.85 µg/mL)	32 µM (≈ 15.7 µg/mL)	32 µM (≈ 15.7 µg/mL)	32 µM (≈ 15.7 µg/mL)	4 µM (≈ 1.96 µg/mL)	16 µM (≈ 7.85 µg/mL)	1 µM (≈ 0.49 µg/mL)	32 µM (≈ 15.7 µg/mL)	MIC (Streptococcus pneumoniae [20]): 0.13 µM (≈ 0.0638 µg/mL); MIC (Streptococcus pyogenes [21]): 0.06 µM (≈ 0.0294 µg/mL); MIC (Salmonella [16]): 1 µM (≈ 0.49 µg/mL); MIC (Enterococcus faecalis [22]): 32 µM (≈ 15.7 µg/mL)
N[C@@H](C(=O)N[C@@H]1C(=O)N2C(C(=O)O)=C(C(F)(F)F)CC[C@H]12)c1ccc(F)cc1	0.5 µM (≈ 0.201 µg/mL)	0.5 µM (≈ 0.201 µg/mL)	16 µM (≈ 6.42 µg/mL)	8 µM (≈ 3.21 µg/mL)	8 µM (≈ 3.21 µg/mL)	64 µM (≈ 25.7 µg/mL)	1 µM (≈ 0.401 µg/mL)	32 µM (≈ 12.8 µg/mL)	64 µM (≈ 25.7 µg/mL)	8 µM (≈ 3.21 µg/mL)	1 µM (≈ 0.401 µg/mL)	8 µM (≈ 3.21 µg/mL)	8 µM (≈ 3.21 µg/mL)	32 µM (≈ 12.8 µg/mL)	8 µM (≈ 3.21 µg/mL)	8 µM (≈ 3.21 µg/mL)	1 µM (≈ 0.401 µg/mL)	16 µM (≈ 6.42 µg/mL)	1 µM (≈ 0.401 µg/mL)	8 µM (≈ 3.21 µg/mL)	MIC (Streptococcus pneumoniae [20]): 0.25 µM (≈ 0.1 µg/mL); MIC (Enterococcus faecalis [11]): 32 µM (≈ 12.8 µg/mL); MIC (Salmonella [23]): 0.5 µM (≈ 0.201 µg/mL); MIC (Streptococcus pyogenes [21]): 0.06 µM (≈ 0.0241 µg/mL)
N[C@@H](C(=O)N[C@@H]1C(=O)N2C(C(=O)O)=C(C(F)(F)F)CC[C@H]12)c1ccc(Cl)c(Cl)c1	1 µM (≈ 0.452 µg/mL)	2 µM (≈ 0.904 µg/mL)	128 µM (≈ 57.9 µg/mL)	128 µM (≈ 57.9 µg/mL)	128 µM (≈ 57.9 µg/mL)	64 µM (≈ 28.9 µg/mL)	0.5 µM (≈ 0.226 µg/mL)	128 µM (≈ 57.9 µg/mL)	128 µM (≈ 57.9 µg/mL)	128 µM (≈ 57.9 µg/mL)	16 µM (≈ 7.24 µg/mL)	64 µM (≈ 28.9 µg/mL)	32 µM (≈ 14.5 µg/mL)	8 µM (≈ 3.62 µg/mL)	64 µM (≈ 28.9 µg/mL)	128 µM (≈ 57.9 µg/mL)	2 µM (≈ 0.904 µg/mL)	32 µM (≈ 14.5 µg/mL)	32 µM (≈ 14.5 µg/mL)	128 µM (≈ 57.9 µg/mL)	MIC (Streptococcus pneumoniae [20]): 0.13 µM (≈ 0.0588 µg/mL); MIC (Enterococcus faecalis [11]): 16 µM (≈ 7.24 µg/mL); MIC (Streptococcus pyogenes [21]): 0.02 µM (≈ 0.00904 µg/mL); MIC (Salmonella [16]): 32 µM (≈ 14.5 µg/mL)
